Like-named read-outs stand apart in the source and are kept apart here.
Key:
[1] = tested on: HL-60 (human myeloid leukemia) cells; assay: MTT cytotoxicity assay, HL-60; type: cell-based; conditions: HL-60, MTT, 48 h, read-out: IC50 against HL-60
Experimental: (§1) Compounds 1–10 were evaluated for their cytotoxic activities against five human cancer cell lines, HL-60 (human myeloid leukemia), SMMC-7721 (hepatocellular carcinoma), A549 (lung cancer), MCF-7 (breast cancer), and SW480 (colon cancer), and one human normal cell line BEAS-2B (human bronchial epithelial) by the MTT method. DDP (cis-platin) and taxol were used as positive controls.
(§2) Five human cancer cell lines, human myeloid leukemia HL-60, hepatocellular carcinoma SMMC-7721, lung cancer A549, breast cancer MCF-7, and colon cancer SW480 cells, together with one human normal cell line BEAS-2B (human bronchial epithelial), were assayed. Cells were cultured in RPMI-1640 or in DMEM medium (Hyclone, USA), supplemented with 10% fetal bovine serum (Hyclone, USA) in 5% CO2 at 37 °C. The antiproliferative assay was performed according to the MTT (3-(4,5-dimethylthiazol-2-yl)-2,5-diphenyl tetrazolium bromide) method in 96-well microplates, as reported previously, with slight modification. Briefly, 100 μL of adherent cells was seeded into each well of 96-well cell culture plates and allowed to adhere for 12 h before addition of test compounds, while suspended cells were seeded just before the addition of the drug with initial density of 1 × 10^5 cells/mL. Each cancer cell line was exposed to the tested compound at concentrations of 0.0625, 0.32, 1.6, 8, and 40 μM in triplicates for 48 h. Wells with DMSO were used as negative controls, and DDP (cis-platin, Sigma, USA) and taxol were used as a positive control. After compound treatment, cell viability was detected by a Bio-Rad 680 at λ = 595 nm and a cell growth curve was graphed. IC50 values were calculated by Reed and Muench’s method.

[2] = tested on: SMMC-7721 (hepatocellular carcinoma) cells; assay: MTT cytotoxicity assay, SMMC-7721; type: cell-based, human; conditions: SMMC-7721, MTT, 48 h, read-out: IC50 against SMMC-7721
Experimental: as §1, §2

A549 (lung cancer) cells = assay: MTT cytotoxicity assay, A549; type: cell-based, human; conditions: A-549, MTT, 48 h, read-out: IC50 against A-549
Experimental: as §1, §2

[3] = tested on: MCF-7 (breast cancer) cells; assay: MTT cytotoxicity assay, MCF-7; type: cell-based, human; conditions: MCF-7, MTT, 48 h, read-out: IC50 against MCF-7
Experimental: as §1, §2

[4] = tested on: SW480 (colon cancer) cells; assay: MTT cytotoxicity assay, SW480; type: cell-based, human; conditions: 48 h, read-out: IC50 against SW480
Experimental: as §1, §2

[5] = tested on: BEAS-2B (human bronchial epithelial) cells; assay: MTT cytotoxicity assay, BEAS-2B normal cell line; type: cell-based; conditions: BEAS-2B human normal cell line, 48 h, read-out: IC50 against BEAS-2B
Experimental: as §1, §2

| Structure (SMILES) | IC50 ([1]; Homo sapiens) [µM] | IC50 ([2]; Homo sapiens) [µM] | IC50 (A549 (lung cancer) cells; Homo sapiens, A549) [µM] | IC50 ([3]; Homo sapiens, MCF7) [µM] | IC50 ([4]; Homo sapiens) [µM] | IC50 [5] [µM] | IC50 [1] [µM] | IC50 [2] [µM] | IC50 (A549 (lung cancer) cells) [µM] | IC50 [3] [µM] | IC50 [4] [µM] |
| --- | --- | --- | --- | --- | --- | --- | --- | --- | --- | --- | --- |
| C=C(C)[C@]12C[C@@H](C)[C@@]34OC5(CCCCCCC[C@@H](C)[C@H]6[C@H](C)[C@H](O)[C@@](O)([C@H](O)[C@@]7(COC(=O)/C=C/c8ccccc8)O[C@H]7[C@H]3[C@H]1O5)[C@@H]64)O2 [Compound 1, wikstroelide Q] | 26.4 | > 40 | > 40 | > 40 | > 40 | > 40 |  |  |  |  |  |
| C=C(C)[C@]12C[C@@H](C)[C@@]34OC5(CCCCCCC[C@H](C)[C@H]6[C@H](C)[C@H](OC(=O)c7ccccc7)[C@@](O)([C@H](O)[C@@]7(CO)O[C@H]7[C@H]3[C@H]1O5)[C@@H]64)O2 [Compound 2, pimelea factors P2] | 13.8 | 17.5 | 12.1 | 12.8 | 15.9 | 17.4 |  |  |  |  |  |
| C=C(C)[C@@]12C[C@@H](C)[C@@]34OC5(CCCCCCC[C@@H](C)[C@H]6[C@H](C)[C@H](OC(=O)c7ccccc7)[C@@](O)([C@H](O)[C@@]7(CO)O[C@H]7[C@H]3[C@H]1O5)[C@@H]64)O2 [Compound 3, pimelea factor P3] | 13.3 | 14.9 | 11.1 | 14 | 14.4 | 15.4 |  |  |  |  |  |
| CC(=O)O[C@@]12C[C@@H](C)[C@@]3(O)[C@@H](C=C(CO)C[C@]4(O)C(=O)C(C)=C[C@@H]34)[C@@H]1C2(C)C [Compound 4, prostratin] | 15.6 | 18.1 | 12.6 | 16 | 13.3 | 17.4 |  |  |  |  |  |
| CCCCC/C=C/C=C/C(=O)O[C@@H]1[C@@H](C)[C@@]2(O)[C@@H](C=C(CO)C[C@]3(O)C(=O)C(C)=C[C@@H]23)[C@@H]2C(C)(C)[C@]12OC(C)=O [Compound 5, prostratin Q] | 15.8 | 15.1 | 15.8 | 15 | 14.8 | 16.6 |  |  |  |  |  |
| COc1cc([C@H]2OC[C@H]3[C@@H]2CO[C@H]3c2ccc(O)c(OC)c2)ccc1O [Compound 6, (+)-epipioresinol] | > 40 | > 40 | > 40 | > 40 | > 40 | > 40 |  |  |  |  |  |
| COc1cc([C@H]2c3cc(O)c(OC)cc3C[C@@H](CO)[C@@H]2CO)ccc1O [Compound 7, (+)-isolariciresinol] | > 40 | > 40 | > 40 | > 40 | > 40 | > 40 |  |  |  |  |  |
| COc1cc(C[C@@H]2CO[C@@H](c3ccc(O)c(OC)c3)[C@@H]2CO)ccc1O [Compound 8, (−)-lariciresinol] | > 40 | > 40 | > 40 | > 40 | > 40 | > 40 |  |  |  |  |  |
| O=C(c1ccc2c(c1)OCO2)[C@H]1CO[C@H](c2ccc3c(c2)OCO3)[C@H]1CO [Compound 9, (+)-epi-sesaminone] | > 40 | > 40 | > 40 | > 40 | > 40 | > 40 |  |  |  |  |  |
| COc1ccc(C[C@@H]2COC(=O)[C@H]2Cc2ccc(OC)c(O)c2)cc1O [Compound 10, prestegane B] | > 40 | > 40 | > 40 | > 40 | > 40 | > 40 |  |  |  |  |  |
| N.N.[Cl][Pt][Cl] [DDP ( cis-platin), cis-platin, reference compound] |  |  |  |  |  | 8.61 | 1.25 | 16.2 | 14.1 | 16.9 | 18.1 |
| CC(=O)O[C@H]1C(=O)[C@@]2(C)[C@H]([C@H](OC(=O)c3ccccc3)[C@]3(O)C[C@H](OC(=O)[C@H](O)[C@@H](NC(=O)c4ccccc4)c4ccccc4)C(C)=C1C3(C)C)[C@]1(OC(C)=O)CO[C@@H]1C[C@@H]2O [Taxol, taxol, reference compound] | < 0.008 | < 0.008 | < 0.008 | < 0.008 | < 0.008 | 5 |  |  |  |  |  |
